In PMC7464559, “Synthesis, Optimization, Antifungal Activity, Selectivity, and CYP51 Binding of New 2-Aryl-3-azolyl-1-indolyl-propan-2-ols” (Pharmaceuticals, 2020):
Converted amounts (≈) assume the structure as drawn.

What was measured:
[1] = tested on: ATCC90018 Candida parapsilosis strain; assay: Anti-Candida in vitro assay, ATCC90018; type: cell-based; settings: Lodderomyces parapsilosis; Candida parapsilosis ATCC90018, mean of triplicate; read-out: MIC (IC80) ATCC90018
Experimental: (§1) Test fungal strains were obtained from the American Type Culture Collection (ATCC) or were clinical isolates from the Laboratory of Parasitology and Medical Mycology, Centre Hospitalier Universitaire (CHU) of Nantes. The strains were maintained on Sabouraud agar slants and were subcultured 24 h before used. The activity of the target compounds 8a–g and 11a–m was determined by the method previously described. Briefly, molecules were diluted in RPMI 1640 medium supplemented with 0.165 M morpholinopropanesulphonic acid (Sigma-Aldrich, Saint-Quentin Fallavier, France), 2% glucose, and antibiotics. Candida suspensions were prepared in RPMI 1640 medium (Sigma-Aldrich, Saint-Quentin Fallavier, France) adjusted to give a final concentration of 10^3 cells/mL, and a 96-well microplate (Nunc, D. Dutscher, Brumath, France) was seeded with 100 µL. Each concentration of molecules (100 µL) to be tested was added (in triplicate) and plates were incubated at 37 °C for 24 h. The cellular viability was evaluated on the Fluorolite 1000 (Dynatech, France) with an excitation at 550 nm and an emission at 590 nm after a 4 h incubation with 10 µL of Alamar Blue®. […] MIC was expressed as the mean of the triplicate values. KTC and FLC were used as standards.

[2] = tested on: CA98002 (Candida albicans); assay: Anti-Candida in vitro assay, CA98002; type: cell-based; settings: Candida albicans CA98002, mean of triplicate; read-out: MIC (IC80) CA98002
Experimental: as §1

[3] = tested on: ATCC6258 Candida krusei strain; assay: Anti-Candida in vitro assay, ATCC6258; type: cell-based; settings: Pichia kudriavzevii; Candida krusei ATCC6258, mean of triplicate; read-out: MIC (IC80) ATCC6258
Experimental: as §1

aromatase (CYP19) = molecular target: T1, aromatase (CYP19) (Homo sapiens, UniProt P11511); assay: In vitro inhibition of aromatase; type: biochemical
T1 construct: Microsomal protein (0.1 mg) was added to start the reaction; from tissue; host or cells: microsomes; ('human placental microsomes')
T1 sequence (P11511 1-503): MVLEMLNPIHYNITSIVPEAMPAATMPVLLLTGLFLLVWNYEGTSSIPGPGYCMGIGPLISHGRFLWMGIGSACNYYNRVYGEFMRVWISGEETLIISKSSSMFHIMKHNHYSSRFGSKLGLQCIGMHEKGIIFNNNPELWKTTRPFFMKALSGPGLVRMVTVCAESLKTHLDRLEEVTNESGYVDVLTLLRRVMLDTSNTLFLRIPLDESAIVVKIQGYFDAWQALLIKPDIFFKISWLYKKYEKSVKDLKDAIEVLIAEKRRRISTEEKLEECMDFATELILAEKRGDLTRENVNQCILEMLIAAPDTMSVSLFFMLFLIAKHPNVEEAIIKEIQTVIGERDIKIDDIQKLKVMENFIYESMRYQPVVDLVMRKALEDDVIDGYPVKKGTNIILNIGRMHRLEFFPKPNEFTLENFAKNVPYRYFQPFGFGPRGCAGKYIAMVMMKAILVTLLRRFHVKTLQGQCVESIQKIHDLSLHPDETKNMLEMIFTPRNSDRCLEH
Experimental: The assay was performed according to previously described methods [49, 50, 51] by monitoring the enzyme activity by measuring the ^3H2O formed from [1β-^3H]androstenedione during aromatization. […] Microsomal protein (0.1 mg) was added to start the reaction. After incubation of 15 min at 30 °C, the reaction was stopped by adding 200 µL of a cold HgCl2 solution (1 mM). After the addition of 200 µL of an aqueous dextran-coated charcoal (DCC) suspension (2%), the vials were shaken then centrifuged to separate the charcoal-absorbed steroids. Aliquots of the supernatant were assayed for ^3H2O by counting in a scintillation mixture using a LKB-Wallac β-counter.

CK98003 (Candida krusei) = assay: Anti-Candida in vitro assay, CK98003; type: cell-based; settings: Pichia kudriavzevii; Candida krusei CK98003, mean of triplicate; read-out: MIC (IC80) CK98003
Experimental: as §1

C. albicans CA98001 = assay: Anti-Candida in vitro assay (Alamar Blue), C. albicans CA98001; type: cell-based; settings: MIC = IC80, 24 h at 37 °C, mean of triplicate; for MIC: Candida albicans, CA98001, 24 h
Experimental: as §1

[4] = tested on: ATCC2091 Candida albicans strain; assay: Anti-Candida in vitro assay, ATCC2091; type: cell-based; settings: Candida albicans ATCC2091, mean of triplicate; read-out: MIC (IC80) ATCC2091
Experimental: as §1

CK98002 (Candida krusei) = assay: Anti-Candida in vitro assay, CK98002; type: cell-based; settings: Pichia kudriavzevii; Candida krusei CK98002, mean of triplicate; read-out: MIC (IC80) CK98002
Experimental: as §1

[5] = tested on: CL98001 (Candida lusitaniae); assay: Anti-Candida in vitro assay, CL98001; type: cell-based; settings: Clavispora lusitaniae; Candida lusitaniae CL98001, mean of triplicate; read-out: MIC (IC80) CL98001
Experimental: as §1

[6] = tested on: CA98005 (Candida albicans); assay: Anti-Candida in vitro assay, CA98005; type: cell-based; settings: Candida albicans CA98005, mean of triplicate; read-out: MIC (IC80) CA98005
Experimental: as §1

MRC5 toxicity assay = type: cell-based, human; settings: human, MRC-5 human fetal lung fibroblast cells, MRC-5 cells, 96-h incubation, mean of triplicate; read-out: Cytotoxicity IC50 on MRC-5 cells
Experimental: (§2) The cytotoxicity of compounds was studied with human fibroblast (MRC5). Cells were grown in RPMI 1640 medium (Sigma-Aldrich, Saint-Quentin Fallavier, France) supplemented with 10% fetal bovin serum (Sigma–Aldrich). Drugs were tested at three concentrations (100, 10, and 1 µM) in triplicate. After a 96-h incubation time, cytotoxicity was measured on the Fluorolite 1000 (Dynatech, Guyancourt, France) after a 4-h incubation time with Uptiblue® (Interchim, Montluçon, France). Inhibitory concentration 50 is a mean of triplicate values. A toxicity index was determined as follow: IC50 against MRC5/Geometric mean of the MICs against Candida spp..

[7] = tested on: human fetal lung fibroblast (MRC-5) cells; assay: MRC5 toxicity assay; type: cell-based; settings: 96-h incubation, mean of triplicate, read-out: Cytotoxicity IC50 on MRC-5 cells
Experimental: as §2

[8] = molecular target: T2, 17α-hydroxylase/17,20-lyase (CYP17) (Homo sapiens, UniProt P05093); assay: In vitro inhibition of 17α-hydroxylase/17,20-lyase; type: biochemical; settings: mean of two experiments in duplicate
T2 sequence (P05093 1-508): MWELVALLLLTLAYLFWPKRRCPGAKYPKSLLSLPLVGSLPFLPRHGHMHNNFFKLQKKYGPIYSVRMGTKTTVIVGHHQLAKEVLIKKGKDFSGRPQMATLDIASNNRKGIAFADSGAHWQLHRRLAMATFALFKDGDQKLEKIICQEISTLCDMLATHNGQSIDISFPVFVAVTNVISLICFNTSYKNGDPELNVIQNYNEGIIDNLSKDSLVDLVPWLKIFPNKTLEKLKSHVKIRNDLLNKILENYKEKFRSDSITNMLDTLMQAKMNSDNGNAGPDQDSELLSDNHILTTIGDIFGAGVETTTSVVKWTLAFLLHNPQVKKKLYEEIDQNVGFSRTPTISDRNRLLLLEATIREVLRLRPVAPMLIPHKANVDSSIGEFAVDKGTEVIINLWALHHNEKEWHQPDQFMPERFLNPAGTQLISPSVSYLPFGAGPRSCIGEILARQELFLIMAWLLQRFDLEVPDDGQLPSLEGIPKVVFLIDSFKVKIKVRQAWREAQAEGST
Experimental: The assay was performed similar to described methods [29, 52]. […] Microsomal protein was added to start the reaction. […] After the addition of 1 mL EtOAc, the vials were shaken then centrifuged. The organic phase was removed, vortexed with phosphate buffer (250 µL), 1 M aqueous HCl (50 µL), and then dried. Aliquots of 25 µL methanol, containing 250 pmol of fluorocortisol acetate as internal standard, were added to the extracts. The samples (20 µL) were submitted to HPLC (RP-8 column, methanol/water 1:1, v/v) and measured using UV (240 nm).

`OC(Cn1cncn1)(Cn1ccc2ccccc21)c1ccc(F)cc1F` (stereo not shown) [Compound 11d, 2-(2,4-Difluorophenyl)-3-(1H-indol-1-yl)-1-(1H-1,2,4-triazol-1-yl)-propan-2-ol] gave an MIC [1] of 0.201 µg/mL (≈ 0.567 µM), an MIC [2] of 0.026 µg/mL (≈ 0.0734 µM) and an MIC [3] of 2.18 µg/mL (≈ 6.15 µM). The inhibition at 36 µM (aromatase (CYP19); at 36 µM) was 89%, the IC50 (aromatase (CYP19); mean of at least two experiments in duplicate) was 3.58 µM and the MIC (CK98003 (Candida krusei)) was 24.1 µg/mL (≈ 67.9 µM). It also gave an MIC (C. albicans CA98001) of 0.0198 µg/mL (≈ 0.0559 µM), an MIC [4] of 0.021 µg/mL (≈ 0.0593 µM) and an MIC (CK98002 (Candida krusei)) of 1.55 µg/mL (≈ 4.37 µM). For the same compound, the melting point was 119 to 120 °C, the MIC [5] was 0.021 µg/mL (≈ 0.0593 µM) and the MIC [6] was 0.064 µg/mL (≈ 0.181 µM). The IC50 at 96 h (MRC5 toxicity assay) was > 100 µM and the IC50 [7] was ~197 µM.
Work on `OC(Cn1cncn1)(Cn1ccc2ccccc21)c1ccc(F)cc1` (stereo not shown) [Compound 11a, 2-(4-Fluorophenyl)-3-(1H-indol-1-yl)-1-(1H-1,2,4-triazol-1-yl)propan-2-ol] yielded an MIC [1] of 2.52 µg/mL (≈ 7.5 µM), an MIC [2] of 0.404 µg/mL (≈ 1.2 µM) and an MIC [3] of 19.2 µg/mL (≈ 57.2 µM). For the same compound, the MIC (CK98003 (Candida krusei)) was 18.7 µg/mL (≈ 55.5 µM), the MIC (C. albicans CA98001) was 0.21 µg/mL (≈ 0.624 µM) and the “MIC (= IC80) C. albicans CA98001” value (C. albicans CA98001) was 0.21 µg/mL (≈ 0.624 µM). The MIC [4] was 0.437 µg/mL (≈ 1.3 µM), the MIC (CK98002 (Candida krusei)) was 21.4 µg/mL (≈ 63.7 µM) and the melting point was 190 to 191 °C. For the same compound, the MIC [5] was 0.259 µg/mL (≈ 0.77 µM), the MIC [6] was 0.437 µg/mL (≈ 1.3 µM) and the IC50 at 96 h (MRC5 toxicity assay) was > 100 µM.
For `OC(Cn1ccnc1)(Cn1ccc2ccccc21)c1ccc(Cl)cc1Cl` (stereo not shown) [Compound 8e, 2-(2,4-Dichlorophenyl)-1-(1H-imidazol-1-yl)-3-(1H-indol-1-yl)propan-2-ol], the MIC [1] was 0.24 µg/mL (≈ 0.621 µM), the MIC [2] was 0.251 µg/mL (≈ 0.65 µM) and the MIC [3] was 1.2 µg/mL (≈ 3.11 µM). The MIC (CK98003 (Candida krusei)) was 0.28 µg/mL (≈ 0.725 µM), the MIC (C. albicans CA98001) was 0.062 µg/mL (≈ 0.161 µM) and the MIC [4] was 0.19 µg/mL (≈ 0.492 µM). It also gave an MIC (CK98002 (Candida krusei)) of 1.8 µg/mL (≈ 4.66 µM), a melting point of 212 to 213 °C and an MIC [5] of 0.116 µg/mL (≈ 0.3 µM). It also gave an MIC [6] of 0.274 µg/mL (≈ 0.709 µM) and an IC50 at 96 h (MRC5 toxicity assay) of 31 µM.
In the case of `Cc1c(C)n(CC(O)(Cn2cncn2)c2ccc(F)cc2F)c2ccccc12` (stereo not shown) [Compound 11j, 2-(2,4-Difluorophenyl)-3-(2,3-dimethyl-1H-indol-1-yl)-1-(1H-1,2,4-triazol-1-yl)propan-2-ol], the MIC [1] is reported as 4.01 µg/mL (≈ 10.5 µM), the MIC [2] is reported as 0.382 µg/mL (≈ 0.999 µM) and the MIC [3] is reported as 18 µg/mL (≈ 47 µM). It also gave an MIC (CK98003 (Candida krusei)) of 13.9 µg/mL (≈ 36.4 µM), an MIC (C. albicans CA98001) of 0.157 µg/mL (≈ 0.411 µM) and an MIC [4] of 0.256 µg/mL (≈ 0.669 µM). It also gave an MIC (CK98002 (Candida krusei)) of 11.5 µg/mL (≈ 30 µM), a melting point of 102 to 103 °C and an MIC [5] of 0.256 µg/mL (≈ 0.669 µM). The MIC [6] was 2.41 µg/mL (≈ 6.3 µM) and the IC50 at 96 h (MRC5 toxicity assay) was 25 µM.
For `Cc1c(C)n(CC(O)(Cn2cncn2)c2ccc(Cl)cc2Cl)c2ccccc12` (stereo not shown) [Compound 11k, 2-(2,4-Dichlorophenyl)-3-(2,3-dimethyl-1H-indol-1-yl)-1-(1H-1,2,4-triazol-1-yl)propan-2-ol], the MIC [1] was 9.76 µg/mL (≈ 23.5 µM), the MIC [2] was 1.12 µg/mL (≈ 2.7 µM) and the MIC [3] was 25.3 µg/mL (≈ 60.9 µM). The MIC (CK98003 (Candida krusei)) was > 41.5 µg/mL, the MIC (C. albicans CA98001) was 1.25 µg/mL (≈ 3 µM) and the MIC [4] was 2.74 µg/mL (≈ 6.6 µM). For the same compound, the MIC (CK98002 (Candida krusei)) was 20.2 µg/mL (≈ 48.7 µM), the melting point was 123 to 124 °C and the MIC [5] was 2.87 µg/mL (≈ 6.9 µM). The MIC [6] was 2.99 µg/mL (≈ 7.2 µM), the IC50 at 96 h (MRC5 toxicity assay) was ~97 µM and the IC50 [7] was 97.3 µM.
Compound `COc1ccc2c(c1)CCC(Cc1cnc[nH]1)=C2C` [BW19, 4-(6-methoxy-1-methyl-3,4-dihydro-naphthalen-2-ylmethyl)-1H-imidazole, reference compound] has an IC50 [8] of 0.15 µM.
